Several values for one entry are separate records, joined by “and”; a condition that tells them apart may be missing. Equal entries are not always repeated.
Tests used:
human α-thrombin = human α-thrombin (Homo sapiens, UniProt P00734); assay: Protease inhibition, Ki for human α-thrombin (fluorogenic substrate Z-Gly-Gly-Arg-AMC); type: biochemical; settings: replicates R1-R3
Summary of the method: (§1)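 Inhibition was measured as AMC fluorescence from 50 μM substrate, monitored for 30 min at 25 °C, relative to a peptide-free control. Human and rat enzymes were present at 2 nM and 3 nM final, respectively, in 50 mM Tris-HCl pH 7.4, 150 mM NaCl, 10 mM MgCl2, 1 mM CaCl2. Ki derives from fitted IC50 via Cheng–Prusoff.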

rat α-thrombin = molecular target: T1, rat α-thrombin (Rattus norvegicus, UniProt P18292); assay: Protease inhibition, Ki for rat α-thrombin (fluorogenic substrate Z-Gly-Gly-Arg-AMC); type: biochemical; settings: replicates R1-R3
T1 construct: rat α-thrombin (Molecular Innovations) were used at final concentrations of 2 nM and 3 nM; purchased Molecular Innovations
Summary of the method: as §1

porcine pepsin = molecular target: T2, porcine pepsin (Sus scrofa, UniProt P00791); assay: Peptide stability in simulated gastric fluid (SGF); type: in vitro ADME
T2 construct: 0.32 g of porcine pepsin (Sigma-Aldrich, P7125) was dissolved under gentle agitation; purchased Sigma-Aldrich P7125
Protocol: (§2) Simulated gastric and intestinal fluids were prepared according to the States Pharmacopeia specifications (Test Solutions, United States Pharmacopeia 35, NF 30, 2012). SGF: 0.2 g of sodium chloride was dissolved in 50 ml of water, and the pH was adjusted to 1.2 by addition of 0.7 ml of 10 M hydrochloric acid. Then, 0.32 g of porcine pepsin (Sigma-Aldrich, P7125) was dissolved under gentle agitation, and the volume was filled up to 100 ml with Milli-Q water. SIF: 0.68 g of monobasic potassium phosphate was dissolved in 25 ml of Milli-Q water, and the pH was adjusted to 6.8 by adding 7.7 ml of a 0.2 M sodium hydroxide solution. Next, 1 g of porcine pancreatin (Sigma-Aldrich, P3292) was added under gentle agitation, and the volume was adjusted to 100 ml with Milli-Q water to afford a fine suspension. To test the stability in simulated gastrointestinal fluids, 396 μl of SGF or SIF was pre-heated at 37 °C for 10 min, and 4 μl of a 1 mM peptide solution in DMSO was added. […] Supernatant was analyzed by LC–MS to measure the peptide concentrations at the different timepoints. Residual peptide was calculated by normalizing the concentrations measured at T1 to T0.

[1] = Peptide stability in simulated intestinal fluid (SIF); type: in vitro ADME, porcine; settings: simulated gi fluid; 8 h, 37 °C, pH 6.8; read-out: Proteolytic stability: SIF (8 h) % remaining
Protocol: as §2

porcine pancreatin = assay: as above; type: in vitro ADME; settings: after 8 h vs 0 h (TIC); average of R1-R3
Protocol: as §2

[2] = Passive artificial membrane permeability (PAMPA); settings: for PAMPA permeability: % permeability: acceptor concentration relative to equilibrium; for Papp at 50 μM / Permeability% Average / Permeability% R1 / Permeability% R3: PAMPA; for Permeability% Average: average of R1-R3; for Permeability% R1: replicate R1; for Permeability% R1 / Permeability% R3: TIC of top well sample relative to sample at theoretical equilibrium; for Permeability% R3: replicate R3;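 on PAMPA permeability: % permeability: acceptor concentration relative to equilibrium after 12–18 h at 50 µM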
[3] = Metabolic stability in rat liver microsomes (RLMs); settings: for microsomal CLint / half-life / microsomal CLint at 10 μM / half-life at 10 μM: rat
[4] = peptide 1.33E+02 uM, slope of proteolytic substrate cleavage over time
[5] = rat liver microsomes, individual replicates R1-R3, incubation volume 400 ul, protein 0.5 mg/ml

T2 sequence (P00791 60-385): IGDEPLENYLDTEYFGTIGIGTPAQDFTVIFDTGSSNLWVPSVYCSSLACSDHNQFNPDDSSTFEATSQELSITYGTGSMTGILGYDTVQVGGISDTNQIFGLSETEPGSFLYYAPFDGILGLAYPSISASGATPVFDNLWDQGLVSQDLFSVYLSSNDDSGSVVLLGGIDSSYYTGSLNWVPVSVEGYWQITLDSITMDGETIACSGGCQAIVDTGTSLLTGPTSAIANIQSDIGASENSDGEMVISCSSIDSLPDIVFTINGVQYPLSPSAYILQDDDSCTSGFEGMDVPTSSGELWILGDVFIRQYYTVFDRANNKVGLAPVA

Q: With `C[C@@H]1NC(=O)[C@@H](NC(=O)c2ccc(Cl)s2)CNC(=O)CCSCc2cccc(n2)CSCCNC1=O` [compound 18] as the compound, how does the “Human alpha thrombin inhibition, slope normalized to DMSO” value (human α-thrombin; peptide 1.02E-03 uM) read?
A: 93.1 and 89.2 and 94.7

Q: And the “Human alpha thrombin inhibition, slope normalized to DMSO” value (human α-thrombin; peptide 1.04E+00 uM)?
A: 93.7 and 88.7 and 98.8

Q: And the “Human alpha thrombin inhibition, slope normalized to DMSO” value (human α-thrombin; peptide 1.27E-04 uM)?
A: 100.2 and 94.8 and 98.1

Q: What about the “Human alpha thrombin inhibition, slope normalized to DMSO” value (human α-thrombin; peptide 1.30E-01 uM) of the same compound?
A: 94.8 and 90.7 and 96.5

Q: And the “Human alpha thrombin inhibition, slope normalized to DMSO” value (human α-thrombin; [4])?
A: 52.1 and 50.8 and 55.1

Q: And the “Human alpha thrombin inhibition, slope normalized to DMSO” value (human α-thrombin; peptide 1.63E-02 uM)?
A: 97.1 and 95.8 and 94.6

Q: What about the “Human alpha thrombin inhibition, slope normalized to DMSO” value (human α-thrombin; peptide 1.67E+01 uM) of the same compound?
A: 73.4 and 68.5 and 72.3

Q: And the “Human alpha thrombin inhibition, slope normalized to DMSO” value (human α-thrombin; peptide 2.03E-03 uM)?
A: 97.3 and 94.1 and 99.2

Q: And the “Human alpha thrombin inhibition, slope normalized to DMSO” value (human α-thrombin; peptide 2.08E+00 uM)?
A: 89.4 and 90.0 and 79.4

Q: What about the “Human alpha thrombin inhibition, slope normalized to DMSO” value (human α-thrombin; peptide 2.54E-04 uM) of the same compound?
A: 98.0 and 92.5 and 94.6

Q: And the “Human alpha thrombin inhibition, slope normalized to DMSO” value (human α-thrombin; peptide 2.60E-01 uM)?
A: 94.5 and 91.9 and 98.0

Q: What about the “Human alpha thrombin inhibition, slope normalized to DMSO” value (human α-thrombin; peptide 3.18E-05 uM) of the same compound?
A: 100.9 and 96.3 and 98.9

Q: What about the “Human alpha thrombin inhibition, slope normalized to DMSO” value (human α-thrombin; peptide 3.26E-02 uM) of the same compound?
A: 93.0 and 91.8 and 94.1

Q: And the “Human alpha thrombin inhibition, slope normalized to DMSO” value (human α-thrombin; peptide 3.33E+01 uM)?
A: 68.4 and 72.8 and 70.8

Q: What about the “Human alpha thrombin inhibition, slope normalized to DMSO” value (human α-thrombin; peptide 4.07E-03 uM) of the same compound?
A: 96.7 and 91.0 and 96.0

Q: And the “Human alpha thrombin inhibition, slope normalized to DMSO” value (human α-thrombin; peptide 4.17E+00 uM)?
A: 85.6 and 83.5 and 84.3

Q: What about the “Human alpha thrombin inhibition, slope normalized to DMSO” value (human α-thrombin; peptide 5.09E-04 uM) of the same compound?
A: 95.1 and 89.7 and 99.5

Q: What about the “Human alpha thrombin inhibition, slope normalized to DMSO” value (human α-thrombin; peptide 5.21E-01 uM) of the same compound?
A: 94.5 and 87.9 and 92.4

Q: What about the “Human alpha thrombin inhibition, slope normalized to DMSO” value (human α-thrombin; peptide 6.36E-05 uM) of the same compound?
A: 96.8 and 88.2 and 100.6

Q: And the “Human alpha thrombin inhibition, slope normalized to DMSO” value (human α-thrombin; peptide 6.51E-02 uM)?
A: 133.7 and 92.1 and 94.3

Q: And the “Human alpha thrombin inhibition, slope normalized to DMSO” value (human α-thrombin; peptide 6.67E+01 uM)?
A: 63.9 and 63.5 and 65.7

Q: And the “Human alpha thrombin inhibition, slope normalized to DMSO” value (human α-thrombin; peptide 8.14E-03 uM)?
A: 96.2 (2×) and 90.9

Q: What about the “Human alpha thrombin inhibition, slope normalized to DMSO” value (human α-thrombin; peptide 8.33E+00 uM) of the same compound?
A: 81.3 and 78.4 and 82.3

Q: And the “Rat alpha thrombin inhibition, slope normalized to DMSO” value (rat α-thrombin; [4])?
A: 32.2 and 38.1 and 17.4

Q: And the “Rat alpha thrombin inhibition, slope normalized to DMSO” value (rat α-thrombin; peptide 1.67E+01 uM)?
A: 45.0 and 46.6 and 55.7

Q: What about the “Rat alpha thrombin inhibition, slope normalized to DMSO” value (rat α-thrombin; peptide 2.08E+00 uM) of the same compound?
A: 90.4 and 89.1 and 91.4

Q: And the “Rat alpha thrombin inhibition, slope normalized to DMSO” value (rat α-thrombin; peptide 3.33E+01 uM)?
A: 47.9 and 19.5

Q: And the “Rat alpha thrombin inhibition, slope normalized to DMSO” value (rat α-thrombin; peptide 4.17E+00 uM)?
A: 77.9 and 77.5 and 82.1

Q: And the “Rat alpha thrombin inhibition, slope normalized to DMSO” value (rat α-thrombin; peptide 6.67E+01 uM)?
A: 36.2 and 41.8

Q: What about the “Rat alpha thrombin inhibition, slope normalized to DMSO” value (rat α-thrombin; peptide 8.33E+00 uM) of the same compound?
A: 63.0 and 63.5 and 66.0

Q: What about the “SGF stability, Residual peptide Average” value (porcine pepsin; after 8 h vs 0 h (TIC), average of R1-R3) of the same compound?
A: 99.57

Q: What about the “SGF stability, Residual peptide” value (porcine pepsin; after 8 h vs 0 h (TIC), single replicates R1-R3) of the same compound?
A: 102.25 and 97.75 and 98.72

Q: What about the remaining at 8 h (porcine pepsin; simulated gi fluid, 8 h, 37 °C, pH 1.2, read-out: Proteolytic stability: SGF (8 h) % remaining) of the same compound?
A: 100 ± 2%

Q: And the remaining at 8 h [1]?
A: 99 ± 9%

Q: And the “SIF stability, Residual peptide Average” value (porcine pancreatin)?
A: 98.53

Q: And the “PAMPA permeability: % permeability” value ([2]; 50 μM, 12–18 h)?
A: 2.73 ± 1.02%

Q: And the Papp at 50 μM ([2]; pH 7.4)?
A: 0.174 ×10⁻⁶ cm/s

Q: What about the “Permeability% Average” value [2] of the same compound?
A: 2.7%

Q: What about the “Permeability% R1” value [2] of the same compound?
A: 2.77%

Q: What about the “Permeability% R3” value [2] of the same compound?
A: 1.69%

Q: What about the microsomal CLint ([3]; microsomes, CL (ul/min/mg protein) R1, RLM CL, replicate R1) of the same compound?
A: 117 µL/min/mg

Q: What about the microsomal CLint ([3]; microsomes, CL (ul/min/mg protein) R2, RLM CL, replicate R2) of the same compound?
A: 96.6 µL/min/mg

Q: What about the microsomal CLint ([3]; microsomes, CL (ul/min/mg protein) R3, RLM CL, replicate R3) of the same compound?
A: 95.7 µL/min/mg

Q: And the half-life ([3]; microsomes, Half Life (min) R1, RLM metabolic stability, replicate R1, 0-60 min)?
A: 11.8 min

Q: What about the half-life ([3]; microsomes, Half Life (min) R2, RLM metabolic stability, replicate R2, 0-60 min) of the same compound?
A: 14.3 min

Q: What about the half-life ([3]; microsomes, Half Life (min) R3, RLM metabolic stability, replicate R3, 0-60 min) of the same compound?
A: 14.5 min

Q: And the half-life ([3]; microsomes, Metabolic stability: Half life T1/2 (min), RLMs, mean and SD, three measurements)?
A: 13.5 ± 1.2 min

Q: What about the microsomal CLint ([3]; microsomes, Metabolic stability: RLM CL (ul/min/mg), RLMs, mean and SD, three measurements) of the same compound?
A: 103 ± 10 µL/min/mg

Q: Which results are given for `CC(=O)CC(c1ccccc1)c1c(O)c2ccccc2oc1=O` (centres unmarked) [Warfarin, warfarin, reference compound]?
A: PAMPA permeability: % permeability ([2]; 50 μM, 12–18 h): 50 ± 5%; Papp at 50 μM ([2]; pH 7.4, PAMPA permeability: logPapp, 50 μM, 12–18 h): 4.57 ×10⁻⁶ cm/s; Papp at 50 μM ([2]; pH 7.4, apparent permeability logPapp (PAMPA), 50 μM, pH 7.4, 12–18 h): 5.01 ×10⁻⁶ cm/s; Permeability% Average [2]: 50.0%; Permeability% R1 [2]: 48.28%; Permeability% R3 [2]: 55.67%; CL (ul/min/mg protein) R1 ([3]; RLM CL, replicate R1): 3.761 ul/min/mg protein; RLM CL [3, 5]: 2.64 ul/min/mg protein; microsomal CLint at 10 μM ([3]; rat liver microsomes, pH 7.4): 2 µL/min/mg

Q: Which “PAMPA permeability: % permeability” value ([2]; 50 μM, 12–18 h) does the source give for `C[C@]12CC[C@H]3[C@@H](CCC4=CC(=O)CC[C@@]43C)[C@@H]1CC[C@@H]2O` [Testosterone, reference compound] here?
A: 88.2 ± 1.1%

Q: What about the “TIC value at 0 min” value ([3]; rat liver microsomes, 0 min incubation, LCMS TIC, individual replicates R1-R3, protein 0.5 mg/ml, Ox (+16)/(+32), deMe (-14)/(-28) = mass adducts (metabolites)) of the same compound?
A: 365657 (2×) and 448878

Q: And the “TIC value at 5 min” value ([3]; rat liver microsomes, 5 min incubation, LCMS TIC, individual replicates R1-R3, protein 0.5 mg/ml)?
A: 76968 and 89225 and 92782

Q: And the “TIC value at 15 min” value ([3]; rat liver microsomes, 15 min incubation, LCMS TIC, individual replicates R1-R3, protein 0.5 mg/ml)?
A: 0

Q: What about the “TIC value at 30 min” value ([3]; rat liver microsomes, 30 min incubation, LCMS TIC, individual replicates R1-R3, protein 0.5 mg/ml) of the same compound?
A: 0

Q: What about the “TIC value at 60 min” value ([3]; rat liver microsomes, 60 min incubation, LCMS TIC, individual replicates R1-R3, protein 0.5 mg/ml) of the same compound?
A: 0

Q: What about the “Half Life” value ([3]; rat liver microsomes, individual replicates R1-R3) of the same compound?
A: 2.29 min and 2.19 min

Q: What about the “RLM CL” value [3, 5] of the same compound?
A: 606.56 ul/min/mg protein and 632.01 ul/min/mg protein

Q: What about the half-life at 10 μM ([3]; microsomes, pH 7.4, Half Life Mean, rat liver microsomes, mean of R1-R3) of the same compound?
A: 2.23 min

Q: And the half-life at 10 μM ([3]; microsomes, pH 7.4, Half Life, rat liver microsomes, individual replicates R1-R3)?
A: 2.21 min

Q: And the half-life at 10 μM ([3]; microsomes, pH 7.4, Metabolic stability: Half life T1/2 (min), RLMs, mean and SD, three measurements)?
A: 2.2 ± 0.1 min

Q: And the microsomal CLint at 10 μM ([3]; microsomes, pH 7.4, Metabolic stability: RLM CL (ul/min/mg), RLMs, mean and SD, three measurements)?
A: 620 ± 10 µL/min/mg

Q: What about the microsomal CLint at 10 μM ([3]; microsomes, pH 7.4, RLM CL Mean, rat liver microsomes, mean of R1-R3) of the same compound?
A: 622 µL/min/mg

Q: What about the microsomal CLint at 10 μM ([3]; microsomes, pH 7.4, RLM CL, rat liver microsomes, individual replicates R1-R3, incubation volume 400 ul, protein 0.5 mg/ml) of the same compound?
A: 626 µL/min/mg
